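Interpolation was linear, between the two tested concentrations surrounding the appropriate level; five concentrations were tested over 48 hours in 96-well plates. The concentration for 50% growth inhibition is given as GI50.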 Activity calls are given as the source filed them. Cut-off read from the data, not from the text of the source: active = GI50 up to about 1.1 µM and inactive = higher.
Columns and labels:
Experiment in all cases: inhibition of tumour cell growth, NCI panel, 48 h
OVCAR-8 = system: OVCAR-8
DU-145 = system: DU-145
OVCAR-5 = system: OVCAR-5
CCRF-CEM = system: CCRF-CEM
TK-10 = system: TK-10
U-251 = system: U-251
SNB-75 = system: SNB-75
SW-620 = system: SW-620
MCF7 = system: MCF7
SK-OV-3 = system: SK-OV-3
A498 = system: A498
MDA-MB-435 = system: MDA-MB-435
NCI-H460 = system: NCI-H460
PC-3 = system: PC-3
ACHN = system: ACHN
NCI/ADR-RES = system: NCI/ADR-RES
786-0 = system: 786-0
CAKI-1 = system: CAKI-1
HOP-92 = system: HOP-92
NCI-H23 = system: NCI-H23
OVCAR-3 = system: OVCAR-3
HCC 2998 = system: HCC 2998
HCT-15 = system: HCT-15
KM12 = system: KM12
T47D = system: T47D
RPMI-8226 = system: RPMI-8226
SNB-19 = system: SNB-19
SF-295 = system: SF-295
MDA-N = system: MDA-N
SK-MEL-28 = system: SK-MEL-28
UACC-257 = system: UACC-257
BT-549 = system: BT-549
COLO 205 = system: COLO 205
SN12C = system: SN12C
M14 = system: M14
HOP-62 = system: HOP-62
SK-MEL-2 = system: SK-MEL-2
HL-60 = system: HL-60
UO-31 = system: UO-31
OVCAR-4 = system: OVCAR-4
UACC-62 = system: UACC-62
A549 = system: A549
SK-MEL-5 = system: SK-MEL-5
EKVX = system: EKVX
LOX IMVI = system: LOX IMVI
NCI-H226 = system: NCI-H226
RXF 393 = system: RXF 393
NCI-H522 = system: NCI-H522
HT-29 = system: HT-29
IGROV-1 = system: IGROV-1
SR = system: SR
MDA-MB-231 = system: MDA-MB-231
Malme-3M = system: Malme-3M
K562 = system: K562
Hs-578T = system: Hs-578T
SF-539 = system: SF-539
MOLT-4 = system: MOLT-4
HCT-116 = system: HCT-116

CCOC(=O)CCSS(=O)(=O)c1ccccc1
GI50 (OVCAR-8): > 100 µM (inactive)
GI50 (DU-145): > 100 µM (inactive)
GI50 (OVCAR-5): 92.9 µM (inactive)
GI50 (CCRF-CEM): 28.4 µM (inactive)
GI50 (TK-10): > 100 µM (inactive)
GI50 (U-251): > 100 µM (inactive)
GI50 (SNB-75): > 100 µM (inactive)
GI50 (SW-620): 22.2 µM (inactive)
GI50 (MCF7): 28.6 µM (inactive)
GI50 (SK-OV-3): > 100 µM (inactive)
GI50 (A498): > 100 µM (inactive)
GI50 (MDA-MB-435): > 100 µM (inactive)
GI50 (NCI-H460): > 100 µM (inactive)
GI50 (PC-3): > 100 µM (inactive)
GI50 (ACHN): > 100 µM (inactive)
GI50 (NCI/ADR-RES): > 100 µM (inactive)
GI50 (786-0): 26 µM (inactive)
GI50 (CAKI-1): > 100 µM (inactive)
GI50 (HOP-92): 86.7 µM (inactive)
GI50 (NCI-H23): > 100 µM (inactive)
GI50 (OVCAR-3): > 100 µM (inactive)
GI50 (HCC 2998): > 100 µM (inactive)
GI50 (HCT-15): 53.2 µM
GI50 (KM12): > 100 µM (inactive)
GI50 (T47D): > 100 µM (inactive)
GI50 (RPMI-8226): 35 µM (inactive)
GI50 (SNB-19): > 100 µM (inactive)
GI50 (SF-295): > 100 µM (inactive)
GI50 (MDA-N): > 100 µM (inactive)
GI50 (SK-MEL-28): > 100 µM (inactive)
GI50 (UACC-257): > 100 µM (inactive)
GI50 (BT-549): > 100 µM (inactive)
GI50 (COLO 205): 97.7 µM (inactive)
GI50 (SN12C): > 100 µM (inactive)
GI50 (M14): 64.4 µM (inactive)
GI50 (HOP-62): > 100 µM (inactive)
GI50 (SK-MEL-2): > 100 µM (inactive)
GI50 (HL-60): 35.8 µM (inactive)
GI50 (UO-31): > 10 µM (inactive)
GI50 (OVCAR-4): > 100 µM (inactive)
GI50 (UACC-62): > 100 µM (inactive)
GI50 (A549): > 100 µM (inactive)
GI50 (SK-MEL-5): 62.2 µM (inactive)
GI50 (EKVX): > 100 µM (inactive)
GI50 (LOX IMVI): 23.3 µM (inactive)
GI50 (NCI-H226): > 100 µM (inactive)
GI50 (RXF 393): > 100 µM (inactive)

N#Cc1cc(C#N)c(N)nc1N
GI50 (OVCAR-8): > 100 µM (inactive)
GI50 (DU-145): 43.6 µM (inactive)
GI50 (OVCAR-5): > 100 µM (inactive)
GI50 (CCRF-CEM): > 100 µM (inactive)
GI50 (TK-10): > 100 µM (inactive)
GI50 (U-251): > 100 µM (inactive)
GI50 (NCI-H522): > 100 µM (inactive)
GI50 (SNB-75): > 100 µM (inactive)
GI50 (SW-620): > 100 µM (inactive)
GI50 (MCF7): > 100 µM (inactive)
GI50 (HT-29): > 100 µM (inactive)
GI50 (SK-OV-3): > 100 µM (inactive)
GI50 (A498): > 100 µM (inactive)
GI50 (MDA-MB-435): > 100 µM (inactive)
GI50 (NCI-H460): > 100 µM (inactive)
GI50 (PC-3): > 100 µM (inactive)
GI50 (ACHN): > 100 µM (inactive)
GI50 (NCI/ADR-RES): > 100 µM (inactive)
GI50 (786-0): > 100 µM (inactive)
GI50 (CAKI-1): > 100 µM (inactive)
GI50 (HOP-92): > 100 µM (inactive)
GI50 (NCI-H23): > 100 µM (inactive)
GI50 (IGROV-1): > 100 µM (inactive)
GI50 (OVCAR-3): > 100 µM (inactive)
GI50 (HCC 2998): > 100 µM (inactive)
GI50 (SR): 19.1 µM (inactive)
GI50 (MDA-MB-231): > 100 µM (inactive)
GI50 (Malme-3M): > 100 µM (inactive)
GI50 (HCT-15): > 100 µM
GI50 (KM12): > 100 µM (inactive)
GI50 (RPMI-8226): > 100 µM (inactive)
GI50 (SNB-19): > 100 µM (inactive)
GI50 (SF-295): > 100 µM (inactive)
GI50 (K562): > 100 µM (inactive)
GI50 (MDA-N): > 100 µM (inactive)
GI50 (UACC-257): > 100 µM (inactive)
GI50 (BT-549): > 100 µM (inactive)
GI50 (COLO 205): > 100 µM (inactive)
GI50 (SN12C): > 100 µM (inactive)
GI50 (Hs-578T): > 100 µM (inactive)
GI50 (M14): > 100 µM (inactive)
GI50 (HOP-62): > 100 µM (inactive)
GI50 (SK-MEL-2): > 100 µM (inactive)
GI50 (HL-60): > 100 µM (inactive)
GI50 (UO-31): > 100 µM (inactive)
GI50 (OVCAR-4): > 100 µM (inactive)
GI50 (SF-539): > 100 µM (inactive)
GI50 (MOLT-4): > 100 µM (inactive)
GI50 (UACC-62): > 100 µM (inactive)
GI50 (A549): > 100 µM (inactive)
GI50 (SK-MEL-5): > 100 µM (inactive)
GI50 (EKVX): > 100 µM (inactive)
GI50 (LOX IMVI): 29.9 µM (inactive)
GI50 (HCT-116): > 100 µM (inactive)
GI50 (NCI-H226): > 100 µM (inactive)
GI50 (RXF 393): > 100 µM (inactive)
